Measurements: patent publication US20080171706A1, “Anti-Adhesive Compounds to Prevent and Treat Bacterial Infections” (priority 2004, published 2008)

Key:
Experiment in all cases: biochemical
[1] = molecular target: T1, FimHtrJ96 (Escherichia coli, UniProt P08191); assay type: binding, uropathogenic E. coli strain J96; conditions: for Kd: Table 3, [3H]-mannose displacement assay (mannose measured directly), read-out: KD J96; for ΔG° J96: Table 3, calculated from KD
T1 construct: coding for the lectin domain of FimH (residues 1-158) with a C-terminal 6-histidine tag; made in house; host or cells: E. coli HB101 (lacking the fim operon), periplasmic extract, plasmid pPKL241
T1 sequence (P08191 22-179): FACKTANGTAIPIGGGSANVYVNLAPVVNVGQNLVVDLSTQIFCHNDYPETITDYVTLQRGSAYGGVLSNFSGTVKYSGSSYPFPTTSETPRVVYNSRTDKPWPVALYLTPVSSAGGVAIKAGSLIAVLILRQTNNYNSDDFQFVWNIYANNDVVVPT
Method: To measure the dissociation constant for FimH:alkyl or aryl-mannoside binding, two different binding assays were developed. The first binding assay uses [^3H]-mannose. The amount of radioactively labeled mannose bound to FimHtrJ96 was measured at six different concentrations of [^3H]-mannose, and a hyperbolic curve fitted to the resulting data (FIG. 1A). FimHtrJ96 corresponds to the carbohydrate (mannose) binding domain of FimH from the uropathogenic E. coli strain J96. The dissociation equilibrium constant was determined from this graph at the concentration of mannose […], which corresponds to occupation of half of the binding sites.
Surface Plasmon Resonance measurements were performed on a Biacore3000™. In a first experiment, the kinetic constants and maximal binding were determined for the FimH-antibody interaction. Next, a fixed concentration of FimH (close to the KD of the FimH-antibody interaction) in combination with varying concentrations of carbohydrate, were used to determine the dissociation equilibrium constant of the FimH-saccharide interaction in a competition experiment. Every measurement was repeated at least twice, including testing the variation between different protein and saccharide batches.
To eliminate the possibility of different binding strength for full length FimH and FimHtrJ96, the binding of alpha-D-mannose to FimC:FimH complex was also measured. […] The inhibition of [^3H]-mannose binding was used in a displacement assay to determine the dissociation constant for a synthetic butyl mannoside by measuring the amount of [^3H]-mannose bound to the protein in the presence of increasing amounts of the inhibitor (FIG. 1B). […] To investigate the effect of sequential addition of methyl groups to the O1 oxygen of D-mannose, a series of alkyl mannosides were synthesized and the dissociation constants determined using the [^3H]-mannose displacement assay and by surface plasmon resonance (Table 1).
Surface Plasmon Resonance measurements were performed on a Biacore3000™. The Fab fragments of a monoclonal antibody against FimH were covalently immobilised via lysines at 1000 Resonance Units (1000 pg ligand/mm^2) in flowcell Fc2 on a CM5 biasensor chip (BIAapplications Handbook, Biacore AB, Uppsala, Sweden). Immobilisation buffer was 100 mM NaAc pH 5.0 with 100 mM NaCl. The reference flowcell Fc1 was left blank.
Binding of FimH to the immobilized antibody was measured with a Biacore 3000 instrument in running buffer (phosphate buffered saline with 0.005% surfactant P20 and 3 mM EDTA), on both flowcells Fc1 and Fc2 simultaneously, at a flow rate of 30 μl/min and at 25° C. Complete dissociation of FimH was done with running buffer before starting a new binding cycle. For all measurements, the association time was 3 minutes, the dissociation time was 30 min. All binding cycles were performed in duplicate, including a zero concentration cycle of FimH (injection of running buffer).
In a first experiment, the kinetic constants, ka and kd, and the maximal binding Rmax, were determined for the FimH-antibody interaction (FimH concentrations (nM): 2000, 1000, 500, 250, 125, 62.5, 31.25, 15.625, 7.818, 3.911, 1.957, 0). All analyses were performed with the BIAeval software. A Langmuir binding isotherm with a 1:1 stoichiometry was fitted to the data, from which the kinetic constants and maximal binding were obtained.
In the next experiment, samples containing a fixed concentration of FimH (close to the KD of the FimH-antibody interaction) in combination with varying concentrations of saccharide, were used to determine the dissociation constant of the FimH-saccharide interaction in a competition experiment. First, ten-fold dilutions of the saccharide solution were used to determine the concentration range for binding of the saccharide to FimH.

[2] = molecular target: T2, FimHtrF18 (Escherichia coli, UniProt P08191, N91S/S99N/V48A); assay type: binding, E. coli fecal (F18) strain; conditions: for Kd: Table 3, [3H]-mannose displacement assay (mannose measured directly), read-out: KD F18; for ΔG° F18: Table 3, calculated from KD
T2 construct: coding for the lectin domain of FimH (residues 1-158) with a C-terminal 6-histidine tag; made in house; host or cells: E. coli HB101 (lacking the fim operon), periplasmic extract, plasmid pPKL316
T2 sequence (P08191 22-179 V48A/N91S/S99N): as the sequence (P08191 22-179) above, with V27A, N70S, S78N counted along it
Method: (§1) To investigate if these variations reflect differences in sugar binding at the molecular level, the dissociation constants of a series of mannosides for the FimH lectin domain from a fecal (F18) and from a UPEC (Cl#4) strain were determined. […] For comparison, binding to FimHtrJ96 was also investigated. Both F18 and Cl#4 FimH lectin domains were cloned, expressed, and purified in the same way as FimHtrJ96 (Schembri et al., 2000). These two lectin domains differ from the lectin domain of FimHJ96 by substitutions Val27Ala, Asn70Ser and Ser78Asn. In addition, FimHCl#4 differs from the other two variants by a Gly73Glu substitution. […] Five different tri-mannosides corresponding to high-mannose substructures were synthesized, and their binding to FimHtrJ96, FimHtrF18 and FimHtrCl#4 measured using our [^3H]-mannose displacement assay (Table 3). Alpha-D-mannose binding was first directly measured for each of the FimH variants.
(§2) [^3H]alpha-D-mannose was obtained from Amersham. […] Syntheses of tri-mannosides was as reported earlier by Oscarson and co-workers (1993). Weighed amounts of tri-mannosides were dissolved in double distilled water to give stock solutions of 0.87 M man-(1,2)-man-(1,2)-man, 0.25 M man-(1,2)-man-(1,3)-man, 0.27 M man-(1,2)-man-(1,6)-man, 0.30 M man-(1,3)-man-(1,6)-man, 0.13 M man-(1,6)-man-(1,6)-man. Similarly, alkyl mannosides were dissolved in double distilled water to give stock solutions of 100 mM methyl mannoside, 59.8 mM ethyl mannoside, 45.9 mM propyl mannoside, 51.9 mM butyl mannoside, 17.3 mM pentyl mannoside, 20.8 mM hexyl mannoside, 15.3 mM heptyl mannoside, 15.2 mM octyl mannoside. pNPalphaMan and MeUmbalphaMan (6 mg each) were dissolved in 20 μl DMSO and diluted to 20 mM using double distilled water. Binding experiments were performed using six different concentrations of [^3H]-alpha-D-mannose (final concentrations 43.5 μM, 29.0 μM, 19.3 μM, 12.9 μM, 8.6 μM, 5.7 μM). FimHtrJ96 obtained by growing bacteria in minimal medium was used in all binding experiments. 180 μl protein at a concentration of about 500 nM was mixed with 20 μl of the radioactive ligand, and incubated at 37° C. for 20 min. To separate free ligand from bound, the mixture was rapidly filtrated through a Protran BA 85 Cellulose-nitrate filter (Schleicher & Schuell, Dassel, Germany), and washed once with 1 ml of ice-cold 1× PBS (phosphate buffered saline). Filter-bound radioactivity was measured by scintillation spectrometry within 24 hours. The displacement experiments were performed using six different concentrations (final concentrations in the range 0.0˜43.5 μM) of the inhibitor, in the presence of 43.5 μM [^3H]-alpha-D-mannose. 20 μl radioactive ligand, 20 μl inhibitor at decreasing concentrations, and 160 μl protein (500 nM) were mixed, and the experiments performed as above. All experiments were performed in duplicates. For determination of KD for α-D-mannose, a hyperbolic curve (y=P1x/(P2+x), where P2=KD) was fitted to the data. For the displacement experiments, the curve y=P1/(P2+x), where P2 is the concentration of the inhibitor displacing 50% of the labelled ligand, [I]0.5 was used instead. To calculate the inhibitor dissociation constant (KI) the Cheng & Prusoff equation (KI=[I]0.5/([L]/KL+1); KL is the constant of dissociation for the ligand) (Cheng and Prusoff, 1973), was used when both the concentration of the radioactive ligand (L) and the displacing agent (I) are in excess over the protein (LT>>PT;IT>>PT, T indicates total concentration). […] A plot of IT/((1−Y)*(LT/KL)−Y) against 1/Y gives a straight line with a slope of KI.

[3] = molecular target: T3, FimHtrCl#4 (Escherichia coli, UniProt P08191, G94E/N91S/S99N/V48A); assay type: binding, E. coli UPEC (Cl#4) strain; conditions: for Kd: Table 3, [3H]-mannose displacement assay (mannose measured directly), read-out: KD CI#4; for ΔG° CI#4: Table 3, calculated from KD
T3 construct: coding for the lectin domain of FimH (residues 1-158) with a C-terminal 6-histidine tag; made in house; host or cells: E. coli HB101 (lacking the fim operon), periplasmic extract, plasmid pMAS146
T3 sequence (P08191 22-179 V48A/N91S/G94E/S99N): as the sequence (P08191 22-179) above, with V27A, N70S, G73E, S78N counted along it
Method: as §1, §2

SMILES	Kd [1]	ΔG° J96 [1]	Kd [2]	ΔG° F18 [2]	Kd [3]	ΔG° CI#4 [3]
OC[C@H]1O[C@H](O[C@@H]2[C@H](O)[C@@H](OC[C@H]3OC(O)[C@@H](O)[C@@H](O)[C@@H]3O)O[C@H](CO)[C@H]2O)[C@@H](O)[C@@H](O)[C@@H]1O (stereo partly drawn) [man-(1,3)-man-(1,6)-man]	485 nM	-8.6 kcal/mol	730 nM	-8.7 kcal/mol	1030 nM	-8.5 kcal/mol
OC[C@H]1O[C@H](OC[C@H]2O[C@H](OC[C@H]3OC(O)[C@@H](O)[C@@H](O)[C@@H]3O)[C@@H](O)[C@@H](O)[C@@H]2O)[C@@H](O)[C@@H](O)[C@@H]1O (stereo partly drawn) [man-(1,6)-man-(1,6)-man]	1400 nM	-8.3 kcal/mol	5900 nM	-7.4 kcal/mol	7500 nM	-7.3 kcal/mol
